In article PMC8212708 (Clinical and Translational Science, 2021):

Biological target: T1, human glucose transporter-1 (hGLUT-1) (Homo sapiens, UniProt P11166)
T1 sequence (P11166 1-492): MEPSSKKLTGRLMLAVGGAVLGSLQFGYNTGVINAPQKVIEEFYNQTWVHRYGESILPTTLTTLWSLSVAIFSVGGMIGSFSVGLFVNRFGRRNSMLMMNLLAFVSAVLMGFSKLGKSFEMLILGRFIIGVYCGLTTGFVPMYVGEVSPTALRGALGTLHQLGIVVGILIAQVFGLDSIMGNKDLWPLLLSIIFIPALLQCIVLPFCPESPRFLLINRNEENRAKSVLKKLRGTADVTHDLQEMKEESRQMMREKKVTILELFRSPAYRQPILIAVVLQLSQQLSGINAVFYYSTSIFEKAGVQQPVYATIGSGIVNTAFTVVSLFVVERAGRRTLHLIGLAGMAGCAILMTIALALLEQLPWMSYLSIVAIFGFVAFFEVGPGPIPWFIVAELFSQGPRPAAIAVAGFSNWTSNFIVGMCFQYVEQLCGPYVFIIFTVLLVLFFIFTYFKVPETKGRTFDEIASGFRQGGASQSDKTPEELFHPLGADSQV
Assay: inhibition of [3H]2-DG
Assay type: cell-based
Details: FaDu, read-out: % inhibition at 25 μM

`O=c1c(-c2ccc(O)cc2)coc2cc(O)cc(O)c12` [genistein] gave an inhibition at 25 µM greater than 50%.

In the case of `CC(C)c1cc(-c2n[nH]c(=O)n2-c2ccc3c(ccn3C)c2)c(O)cc1O` [Ganetespib], the inhibition at 25 µM is reported as greater than 50%.

Compound `C#Cc1cccc(Nc2ncnc3cc(OC)c(OCCCCCCC(=O)NO)cc23)c1` [CUDC-101] has an inhibition at 25 µM of 80 to 90%.
